Values after ≈ are worked out from the molar mass of the structure shown. Values joined by “and” are separate entries in the source; they are usually repeats but may differ in a detail not shown here. Equal entries are not always repeated.
What was measured:
[1] = system: MES-SA/MX2 cells; assay: LC50 by CCK-8 assay, Dox-resistant MES-SA/MX2; assay type: cell-based; details: FIG. 10: after 72 h
Method: Dox-resistant Cell Lines. Acquired resistance to Dox was induced in wild-type triple-negative breast cancer cell line MDA-MB-231 (MDA-231WT) as described before (Aliabadi, H. M.; et al. J. Control. Release 172:219-228, 2013, which is incorporated herein by reference). Briefly, MDA-231WT cells were exposed to Dox at an initial concentration of 0.05 μg/mL for one week or three consecutive expansions (whichever came later). […] Resistance induction was confirmed via calculation of LC50 following a sigmoidal effect model explained elsewhere (Bousoik, E.; et al. Front. Oncol. 9:1070, 2019, which is incorporated herein by reference) and determination of P-glycoprotein (P-gp) expression.
The cytotoxicity of the peptide-Dox conjugate in resistant triple-negative breast cancer and uterine sarcoma cell lines (MDA-231R, MDA-231WT, and MES-SA/MX2) was evaluated by a Cell Counting 8 (CCK8) KIT. The peptide-Dox conjugate was added to the cells in triplicate with different concentrations (0-40 μM). […] After this incubation period, 10 μL of CCK8 reagent was added to each well, and plates were incubated at the same conditions for 2 h. The absorbance of each well was determined at 450 nm using the SpectraMAX M5 microplate reader. […]
Efficiency in Dox-Resistant Cells. […] The cell viability was determined after this incubation period using the CCK-8 assay, as explained above. […]

[2] = system: SK-OV-3 cells; assay: MTS cytotoxicity assay of [(WR)8WKβA]-Dox, SK-OV-3; details: 5 μM, 72 h
Method: (§1) Cytotoxic activity of the synthesized conjugate and noncovalent mixtures of cyclic [WR]9+Dox was determined in SK-OV-3, MDA-MB-231, MCF-7, MES-SA/MX2, and H9C2 cells. […] An appropriate growth medium was used for each cell line (for SK-OV-3: McCoy's […] with L-glutamine containing fetal bovine serum (FBS) (10%) and penicillin or streptomycin (1%); for MDA-MB-231 and MCF-7 cells: DMEM/F12 (1:1) (1×) with L-Glutamine and 15 mM HEPES containing FBS (10%) and penicillin or streptomycin (1%), and for MES-SA/MX2 and H9C2 cells: Minimum Essential Medium Eagle with Earle's salts and sodium bicarbonate, without L-glutamine containing FBS (10%), and penicillin or streptomycin (1%)). The cells were seeded in a complete growth medium 24 h prior to the experiment. […] The incubation was continued for 3 h.

[3] = system: MDA-MB-231 cells; assay: MTS cytotoxicity assay of [(WR)8WKβA]-Dox, MDA-MB-231; details: 5 μM
Method: as §1

[4] = system: MCF-7 cells; assay: MTS cytotoxicity assay of [(WR)8WKβA]-Dox, MCF-7; assay type: cell-based; details: 5 μM
Method: as §1

[5] = system: MES-SA/MX2 cells; assay: MTS cytotoxicity assay of [(WR)8WKβA]-Dox, MES-SA/MX2; details: 5 μM
Method: as §1

[6] = system: H9C2 cells; assay: Confocal microscopy uptake in H9C2 (Example 2); assay type: cell-based, rat; details: 5 μM, 24 h
Method: Confocal Microscopy. MDA-MB-231, SK-OV-3, MES-SA/MX2, and H9C2 cells (7×10^4 cells/well) were seeded with a medium on a coverslip 24 h prior to the experiment in six well plates. After 24 h, the medium was changed with opti-MEM. The cells were treated with Dox and peptide-Dox conjugate (5 μM) in opti-MEM for 24 h. After 24 h incubation, the media were removed, and cells were washed three times with PBS in each well. Then, the cells were fixed with 3.7% formaldehyde for 10 min, followed by washing three times with PBS (pH 7.6) for 5 min. DAPI (40 μL) for staining the nuclei was placed on a microscope slide, and it was covered with the coverslip with the cell-attached side facing down. The slides were left standing horizontally in a dark place with airflow to allow faster drying. The cells were photographed using Nikon Instruments A1 Confocal Laser Microscope Series and NIS-Elements software (AR 4.30.02, 64 bit). The scan mode was selected as Galvano. The magnification and resolution were set at 40× and 1024, respectively.

[7] = system: MDA-MB-231 cells; details: naïve MDA231 cells, previous study (Aliabadi et al, 2013); cited from earlier work
[8] = system: gastric adenocarcinoma cells (AGS); assay: Cytotoxicity, MTS cell viability assay, AGS; details: 5 μM
Method: (§2) In Vitro Cytotoxicity Assay of Peptide-Drug Conjugates. […] In brief, CCRF-CEM cells were seeded at 50,000 cells in 0.1 mL per well in 98-well plates. In the case of other cell lines, the cells were seeded at 5,000 cells (0.1 mL per well in 96-well plates). […] Dox (5 μM) was used as a positive control, while water and cell culture medium were used as negative controls. The compounds were dissolved in water; water was used as a negative control to normalize the data. After the incubation period, MTS reagent (20 μL) was added to each well. The incubation was continued for 2 h. Cell viability was then determined by determination of the fluorescence intensity at 490 nm using a SpectraMax M2 microplate spectrophotometer. The percentage of cell viability was then calculated using the following equation: [(OD value of cells treated with the compound)−(OD value of culture medium)]/[(OD value of control cells)−(OD value of culture medium)]×100% (FIGS. 6-9).

[9] = system: CCRF-CEM cells; assay: Cytotoxicity, MTS cell viability assay, CCRF-CEM; details: 5 μM
Method: as §2

[10] = system: SK-OV-3 cells; assay: Cytotoxicity, MTS cell viability assay, SK-OV-3 (Example 1)
Method: as §2

## COc1cccc2c1C(=O)c1c(O)c3c(c(O)c1C2=O)C[C@@](O)(C(=O)CO)C[C@@H]3O[C@H]1C[C@H](N)[C@H](O)[C@H](C)O1 [Dox, doxorubicin, reference compound]
[1]
  CC50: 41 µM
[2]
  reduction of cell viability / inhibition of proliferation: 35%
[3]; 24 h
  cell viability: 79%
[3]; 72 h
  cell viability: 37%
  inhibition of cell viability/proliferation: 63%
[4]; 24 h
  reduction of cell proliferation: 21%
[4]; 72 h
  reduction of cell proliferation: 57%
[5]; 1 μM, 10 μM, or 20 μM
  efficiency against MES-SA/MX2: did not show significant efficiency
[5]; MES-SA/MX2
  inhibition of cell viability/proliferation: 15%
[6]
  uptake in heart cells (confocal microscopy, words): high uptake
[7]
  LC50: 0.3 µg/mL (≈ 0.552 µM)
[8]
  Cell Viability (%) after 24 h: 54 ± 2%
  Cell Viability (%) after 72 h: 13 ± 3%
[8]; 24 h
  reduction of cell survival: 46%
[8]; 72 h
  reduction of cell survival/viability: 87%
[9]
  Cell Viability (%) after 24 h: 48 ± 2%
  Cell Viability (%) after 72 h: 15 ± 3%
[9]; 24 h
  reduction of cell survival/viability: 52%
[9]; 72 h
  reduction of cell survival/viability: 85%
[10]; 5 μM
  Cell Viability (%) after 24 h: 73 ± 2%
  Cell Viability (%) after 72 h: 67 ± 3%
[10]; 5 μM, 24 h
  reduction of cell survival/viability: 27% and 30%
[10]; 5 μM, 72 h
  reduction of cell survival/viability: 33%
[10]; 10 μM
  Cell Viability (%) after 24 h: 71 ± 3%
  Cell Viability (%) after 72 h: 64 ± 1%
[10]; Dox alone 5 and 10 μM
  cytotoxicity: 27-36%
